How the values were obtained:
Assay type in all cases: in vivo, SD rats (Sprague-Dawley rats)
[1] = system: SD rats with a high cholesterol diet (hyperlipidemia model); assay: Measurement of blood lipid in high cholesterol diet SD rats; details: Ex. compositions 1000 mg/kg/day, atorvastatin 5 mg/kg/day
Experimental: 6-Week-old male SD rats (Sprague-Dawley rats, body weight 180-220 g) were purchased from BioLink (Eumseong, Republic of Korea) and acclimated for a week. […] Drinking water was freely supplied. A room temperature of 22.0+/−2.0° C., a relative humidity of 50.0+/−10.0%, an illumination time of 12 hours (08:00 to 20:00), and an illuminance of 150 to 300 lux were set.
At the end of the experiment, each group was sacrificed after fasting for 12 hours. Their blood was collected from the posterior vena cava and transferred to an EDTA tube to separate the plasma. In the separated plasma, total cholesterol (TC), LDL cholesterol (LDL-c), HDL cholesterol (HDL-c) and triglycerides (TG) were measured using a biochemical kit (Asan Pharmaceutical Co., Ltd., Seoul, Republic of Korea).
The atherogenic index (AI) was calculated by the following equation (1) according to a method of Haulund et al. and the cardiac risk factor (CRF) was calculated by the following equation (2). Atherogenic Index(AI)=[(TC)−(HDL-c)]/[(HDL-c)] (1) Cardiac Risk Factor(CRF)=(TC)/(HDL-c) (2)

[2] = system: SD rats with a high cholesterol diet (hyperlipidemia model); assay: Measurement of body weight and liver weight, visual inspection of liver tissue; details: oral, 4 weeks, Ex. compositions 1,000 mg/kg, atorvastatin 5 mg/kg, mean of five rats
Experimental: (§1) 6-Week-old male SD rats (Sprague-Dawley rats, body weight 180-220 g) were purchased from BioLink (Eumseong, Republic of Korea) and acclimated for a week. They were formed into groups of five rats as described in Table 2 below, and solid feed (Rodent NIH031 Open Formula Auto, Zeigler Bros., USA) and a high cholesterol diet (D12451 with 1.25% cholesterol, Research Diets Inc., USA) were freely fed. Drinking water was freely supplied. A room temperature of 22.0+/−2.0° C., a relative humidity of 50.0+/−10.0%, an illumination time of 12 hours (08:00 to 20:00), and an illuminance of 150 to 300 lux were set.
The body weight before drug administration and the body weight after the end of the experiment were measured. The liver weight was measured by weighing the liver extracted after lethal bleeding on the day of autopsy, and visual inspection of liver tissue was performed.

[3] = system: SD rats with a high cholesterol diet (hyperlipidemia model); assay: Lipid analysis of liver tissue in high cholesterol diet SD rats; details: liver lipid extract, oral, Ex. compositions 1,000 mg/kg, atorvastatin 5 mg/kg
Experimental: as §1
The total lipids in the liver were homogenized and then extracted using a Folch method. The extracted lipids were dissolved in an isopropanol solution, and then with the SPECTROstar Nano (BMG Labtech, Germany), total cholesterol and triglycerides in […] were colorimetrically quantified at 500 nm and 550 nm, respectively, using an enzyme reagent kit (Asan Pharmaceutical Co., Ltd., Seoul, Republic of Korea).

Compound: CC(C)c1c(C(=O)Nc2ccccc2)c(-c2ccccc2)c(-c2ccc(F)cc2)n1CC[C@@H](O)C[C@@H](O)CC(=O)O [Atorvastatin]
- Cardiac Risk Factor (CRF) ([1]; (TC)/(HDL-c)): 2.6
- LDL/HDL [1]: 0.9
- Body weight [2]: 571.6 g
- Liver weight [2]: 24.5 g
- Liver weight/Body weight [2]: 4.26%
- Hepatic total cholesterol concentration [3]: 146 mg/dL
- Hepatic triglyceride concentration [3]: 197 mg/dL

Source: patent US10543246B2, “Composition for preventing or treating hyperlipidemia” (HAWON PHARM. CORPORATION, priority 2014, dated 2020)
